The values that follow come from the NIST ThermoML archive (doi:10.1021/je900027h).

Structures are written as SMILES. ± gives the expanded uncertainty stated by the source.

For the data set the following is noted: Crystal; DTA.

With `c1ccc2c(c1)ccc1ccccc12` [phenanthrene], the Normal melting temperature amounted to 104.92 ± 0.5 °C.
